# Values quoted from earlier work, collected in patent US5733881A, “Opioid peptide antagonists” (Astra AB, priority 1994, dated 1998).
# Test system: μ opioid receptors
# Conditions: GPI assay
compound,measurement,value
Oc1ccc2c3c1O[C@H]1c4[nH]c5ccccc5c4C[C@@]4(O)[C@@H](C2)N(CC2CC2)CC[C@]314 [naltrindole],μ antagonist Ke,29 nM
